Key:
[1] = test system: ABUTH; assay: Pre-emergence herbicidal action against ABUTH; assay type: in vivo, Abutilon theophrasti; conditions: for pest or weed control at 80 g/ha: Abutilon theophrasti, 504 h; for pest or weed control at 80 g/ha / Pre-emergence action against ABUTH (herbicidal activity): scored visually after 3 weeks vs untreated controls (100% = plants have died, 0% = like control plants), 80 g/ha; for Pre-emergence action against ABUTH (herbicidal activity in percent): dosage 20 g/ha, scored visually after 3 weeks vs untreated controls, 100% = plants have died, 0% = like control plants
Description: (§1) Seeds of monocotyledonous and dicotyledonous weed plants and crop plants are laid out in sandy loam soil in wood-fiber pots and covered with soil. The compounds of the invention, formulated in the form of wettable powders (WP) or as emulsion concentrates (EC), are then applied to the surface of the covering soil in the form of an aqueous suspension or emulsion at a water application rate equivalent to 600 to 800 l/ha, with addition of 0.2% wetting agent. After the treatment, the pots are placed in a greenhouse and kept under good growth conditions for the trial plants. The damage to the test plants is scored visually after a test period of 3 weeks by comparison with untreated controls (herbicidal activity in percent (%): 100% activity=the plants have died, 0% activity=like control plants). […] The tables below illustrate, in an illustrative manner, the post-emergence herbicidal action of the compounds of the invention, the herbicidal activity being stated in percent.

[2] = test system: AMARE; assay: Pre-emergence herbicidal action against AMARE; assay type: in vivo, Amaranthus retroflexus; conditions: for pest or weed control at 20 g/ha / pest or weed control at 80 g/ha: Amaranthus retroflexus, 504 h
Description: as §1

[3] = test system: MATIN; assay: Pre-emergence herbicidal action against MATIN; assay type: in vivo, Matricaria inodora; conditions: for pest or weed control at 80 g/ha: Tripleurospermum inodorum, 504 h
Description: as §1

[4] = test system: VERPE; assay: Pre-emergence herbicidal action against VERPE; assay type: in vivo, Veronica persica; conditions: dosage 80 g/ha; for pest or weed control at 80 g/ha: Veronica persica, 504 h
Description: as §1

[5] = test system: VIOTR; assay: Pre-emergence herbicidal action against VIOTR; assay type: in vivo, Viola tricolor; conditions: for pest or weed control at 80 g/ha: Viola tricolor, 504 h
Description: as §1

[6] = test system: DIGSA; assay: Pre-emergence herbicidal action against DIGSA; assay type: in vivo, Digitaria sanguinalis
Description: as §1

[7] = test system: ABUTH; assay: Post-emergence herbicidal action against ABUTH; assay type: in vivo, Abutilon theophrasti; conditions: visual assessment about 3 weeks after treatment vs untreated controls
Procedure: (§2) Seeds of monocotyledonous and dicotyledonous weed and crop plants are laid out in sandy loam soil in wood-fiber pots, covered with soil and cultivated in a greenhouse under good growth conditions. 2 to 3 weeks after sowing, the test plants are treated at the one-leaf stage. The compounds of the invention, formulated in the form of wettable powders (WP) or as emulsion concentrates (EC), are then sprayed onto the green parts of the plants in the form of an aqueous suspension or emulsion at a water application rate equivalent to 600 to 800 l/ha, with addition of 0.2% wetting agent. After the test plants have been left to stand in the greenhouse under optimal growth conditions for about 3 weeks, the action of the preparations is assessed visually in comparison to untreated controls (herbicidal action in percent (%): 100% activity=the plants have died, 0% activity=like control plants). […] The tables below illustrate, in an illustrative manner, the post-emergence herbicidal action of the compounds of the invention, the herbicidal activity being stated in percent.

[8] = test system: AMARE; assay: Post-emergence herbicidal action against AMARE; assay type: in vivo, Amaranthus retroflexus; conditions: 20 g/ha, visual assessment about 3 weeks after treatment, 100% = plants have died, 0% = like control plants; for pest or weed control at 20 g/ha: Amaranthus retroflexus, 504 h
Procedure: as §2

[9] = test system: ECHCG; assay: Post-emergence herbicidal action against ECHCG; assay type: in vivo, Echinochloa crus-galli; conditions: for pest or weed control at 20 g/ha: Echinochloa crus-galli, 504 h
Procedure: as §2

[10] = test system: SETVI; assay: Post-emergence herbicidal action against SETVI; assay type: in vivo, Setaria viridis; conditions: for pest or weed control at 20 g/ha: Setaria viridis, 504 h
Procedure: as §2

[11] = test system: DIGSA; assay: Post-emergence herbicidal action against DIGSA; assay type: in vivo, Digitaria sanguinalis
Procedure: as §2

[12] = test system: ALOMY; assay: Post-emergence herbicidal action against ALOMY; assay type: in vivo, Alopecurus myosuroides; conditions: dosage 20 g/ha, visual assessment about 3 weeks after treatment vs untreated controls
Procedure: as §2

[13] = test system: ECHCG; assay: Pre-emergence herbicidal action against ECHCG; assay type: in vivo, Echinochloa crus-galli; conditions: 80 g/ha
Description: as §1

[14] = test system: SETVI; assay: Pre-emergence herbicidal action against SETVI; assay type: in vivo, Setaria viridis; conditions: dosage 80 g/ha
Description: as §1

[15] = test system: ALOMY; assay: Pre-emergence herbicidal action against ALOMY; assay type: in vivo, Alopecurus myosuroides; conditions: 80 g/ha, pre-emergence, scored visually after 3 weeks vs untreated controls (100% = plants have died, 0% = like control plants)
Description: as §1

[16] = test system: AVEFA; assay: Pre-emergence herbicidal action against AVEFA; assay type: in vivo, Avena fatua; conditions: 80 g/ha, pre-emergence
Description: as §1

[17] = test system: MATIN; assay: Post-emergence herbicidal action against MATIN; assay type: in vivo, Matricaria inodora; conditions: dosage 20 g/ha
Procedure: as §2

[18] = test system: PHBPU; assay: Post-emergence herbicidal action against PHBPU; assay type: in vivo, Pharbitis purpurea; conditions: dosage 20 g/ha
Procedure: as §2

[19] = 20 g/ha, scored visually after 3 weeks vs untreated controls, 100% = plants have died, 0% = like control plants
[20] = 80 g/ha, scored visually after 3 weeks vs untreated controls, 100% = plants have died, 0% = like control plants
[21] = 80 g/ha, scored visually after 3 weeks vs untreated controls (100% = plants have died, 0% = like control plants)

SMILES | Pre-emergence action against AMARE in % [2, 21] | Pre-emergence action against MATIN in % ([3]; dosage 80 g/ha) | Pre-emergence action against VIOTR in % ([5]; dosage 80 g/ha) | Post-emergence action at 20 g/ha against AMARE in % [8] | Pre-emergence action against AMARE in % [2, 19] | Pre-emergence action against ECHCG in % [13] | Pre-emergence action against MATIN in % ([3]; dosage 20 g/ha) | Pre-emergence action against SETVI in % [14] | Pre-emergence action against VERPE in % [4] | Pre-emergence action against DIGSA in % ([6]; dosage 20 g/ha) | Pre-emergence action against DIGSA in % ([6]; dosage 80 g/ha) | Pre-emergence action against ABUTH (herbicidal activity) [1] | Pre-emergence action against ABUTH (herbicidal activity in percent) [1] | Post-emergence action against ABUTH in % ([7]; dosage 20 g/ha) | Post-emergence action against MATIN in % [17] | Post-emergence action against PHBPU in % [18] | Pre-emergence action against ALOMY (herbicidal activity) [15] | Post-emergence action against ECHCG in % ([9]; dosage 20 g/ha) | also measured
Cc1c(C(=O)Nc2nnnn2C)ccc(C(F)(F)F)c1C(=O)NC1COC1 [Example 1-41] | – | – | – | – | – | – | – | – | – | – | – | – | – | – | – | – | – | – | pest or weed control at 80 g/ha [1]: 100%; pest or weed control at 20 g/ha [2, 19]: 90%; pest or weed control at 80 g/ha [2, 20]: 100%; pest or weed control at 80 g/ha ([3]; dosage 80 g/ha): 100%; pest or weed control at 80 g/ha [4]: 90%; pest or weed control at 80 g/ha ([5]; dosage 80 g/ha): 100%; pest or weed control at 80 g/ha ([6]; Digitaria sanguinalis, 504 h, dosage 80 g/ha): 100%; pest or weed control at 5 g/ha ([7]; Abutilon theophrasti, 504 h, dosage 5 g/ha): 80%; pest or weed control at 20 g/ha ([7]; Abutilon theophrasti, 504 h, dosage 20 g/ha): 80%; pest or weed control at 20 g/ha [8]: 90%; pest or weed control at 20 g/ha ([9]; dosage 20 g/ha): 90%; pest or weed control at 20 g/ha ([10]; dosage 20 g/ha): 80%; pest or weed control at 5 g/ha ([11]; Digitaria sanguinalis, 504 h, 5 g/ha): 80%; pest or weed control at 20 g/ha ([11]; Digitaria sanguinalis, 504 h, 20 g/ha): 90%
CN(C)C(=O)CNC(=O)c1c(C(F)(F)F)ccc(C(=O)Nc2nnnn2C)c1Cl [Example 1-142] | 100% | 90% | 90% | 90% | – | – | – | – | – | – | – | – | – | – | – | – | – | – | Post-emergence action against ALOMY in % [12]: 90%
Cn1nnnc1NC(=O)c1ccc(C(F)(F)F)c(C(=O)NCc2cccs2)c1Cl [Example 1-144] | 100% | 90% | 100% | 90% | 90% | 100% | 90% | 80% | 80% | 90% | 90% | – | – | – | – | – | – | – | Pre-emergence action against VIOTR in % ([5]; dosage 20 g/ha): 80%
CCNC(=O)c1c(Cl)ccc(C(=O)Nc2nnnn2C)c1Br [Example 1-350] | – | – | – | – | – | – | – | – | – | – | – | – | – | – | – | – | – | – | pest or weed control at 80 g/ha [1]: 100%; pest or weed control at 80 g/ha ([15]; Alopecurus myosuroides, 504 h): 100%; pest or weed control at 20 g/ha [2, 19]: 100%; pest or weed control at 80 g/ha [2, 20]: 100%; pest or weed control at 80 g/ha ([16]; Avena fatua, 504 h): 90%; pest or weed control at 80 g/ha ([13]; Echinochloa crus-galli, 504 h): 100%; pest or weed control at 80 g/ha ([3]; dosage 80 g/ha): 90%; pest or weed control at 80 g/ha ([14]; Setaria viridis, 504 h): 100%; pest or weed control at 80 g/ha [4]: 80%; pest or weed control at 80 g/ha ([5]; dosage 80 g/ha): 100%; pest or weed control at 20 g/ha [8]: 100%; pest or weed control at 20 g/ha ([9]; dosage 20 g/ha): 80%; pest or weed control at 20 g/ha ([10]; dosage 20 g/ha): 80%
CCn1nnnc1NC(=O)c1ccc(C(F)F)c(C(=O)Nc2ccccc2)c1Cl [Example 2-161] | 100% | 90% | 100% | 100% | 90% | – | 80% | – | 80% | – | – | 100% | 90% | 80% | 80% | 80% | – | – | –
CCn1nnnc1NC(=O)c1ccc(C(F)F)c(C(=O)NCC(F)(F)F)c1Br [Example 2-229] | 100% | 100% | 100% | 90% | 100% | 80% | 100% | 100% | 80% | – | 100% | 100% | 80% | 80% | 80% | 90% | 90% | 90% | Pre-emergence action against AVEFA in % [16]: 90%; Post-emergence action against SETVI in % ([10]; dosage 20 g/ha): 80%
Cc1nnc(NC(=O)c2ccc(Br)c(C(=O)NCC(F)F)c2Cl)o1 [Example 6-145] | 100% | – | – | – | 90% | 90% | – | 100% | – | 90% | 100% | 100% | 100% | – | – | 80% | 90% | – | Post-emergence action against ALOMY in % [12]: 80%; Post-emergence action against SETVI in % ([10]; dosage 5 g/ha): 80%; Post-emergence action against SETVI in % ([10]; dosage 20 g/ha): 90%
Cc1nnc(NC(=O)c2ccc(C(F)F)c(C(=O)NC(C)C)c2Cl)o1 [Example 6-260] | 100% | 100% | – | 80% | 100% | 100% | 100% | 100% | 90% | 100% | 100% | 100% | 90% | 90% | 80% | 90% | 90% | 90% | Post-emergence action against ECHCG in % ([9]; dosage 5 g/ha): 90%; Post-emergence action against DIGSA in % ([11]; 5 g/ha): 90%; Post-emergence action against DIGSA ([11]; 20 g/ha): 90%
Cc1nnc(NC(=O)c2ccc(C(F)F)c(C(=O)NCc3cccs3)c2Cl)o1 [Example 6-264] | 100% | – | – | 80% | 80% | – | – | 80% | 90% | – | – | – | – | – | – | – | – | – | Post-emergence action against DIGSA ([11]; 20 g/ha): 80%
Cc1nnc(NC(=O)c2ccc(C(F)F)c(C(=O)NC(C)C3CC3)c2Br)o1 (stereo not drawn) [Example 6-267] | 100% | 100% | 80% | 90% | 90% | 80% | 90% | 80% | 90% | – | – | 100% | 90% | 80% | – | 80% | 80% | 90% | –

Source: patent US12655116B2, “Substituted isophthalic acid diamides” (Bayer Aktiengesellschaft, priority 2020, dated 2026)
